Test results as given in patent US20090047246A1, “NOVEL INHIBITORS OF HEPATITIS C VIRUS REPLICATION” (InterMune, Inc., priority 2007, published 2009).
Like-named read-outs stand apart in the source and are kept apart here.

Biological target: T1, HCV NS3 helicase (Hepatitis C virus genotype 1b, UniProt P26663)
T1 construct: full-length NS3 (1-631), purified at Array BioPharma
Assay: HCV Helicase Prompt FRET Assay (Example A)
Type: biochemical
Summary of the method: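 Full-length NS3 (1-631), 5 or 6 nM, preincubated 5 min with compound, then unwinds 50 nM FAM/BHQ-1 duplex substrate with 250 nM capture strand and 300 μM ATP in 25 mM MOPS pH 7.0, 1.5 mM MgCl2, 0.005% Triton X-100, 2% DMSO. Fluorescence (485/535 nm) followed ~30 min at room temperature; IC50 from initial rates by 4- or 5-parameter fit.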

[1] = HCV NS3 helicase, tables do not say whether Example A or Example B assay, read-out: IC50 Activity
[2] = Table 21, compounds made using Scheme 28, read-out: IC50 Activity
[3] = Table 32, compounds made using Schemes 46-49, read-out: IC50 Activity
[4] = Table 37, compounds made using Scheme 55, read-out: IC50 Activity
[5] = Table 23, compounds made using Scheme 30, read-out: IC50 Activity
[6] = Table 31, compounds made using Schemes 38-45, read-out: IC50 Activity

T1 sequence (P26663 1027-1657): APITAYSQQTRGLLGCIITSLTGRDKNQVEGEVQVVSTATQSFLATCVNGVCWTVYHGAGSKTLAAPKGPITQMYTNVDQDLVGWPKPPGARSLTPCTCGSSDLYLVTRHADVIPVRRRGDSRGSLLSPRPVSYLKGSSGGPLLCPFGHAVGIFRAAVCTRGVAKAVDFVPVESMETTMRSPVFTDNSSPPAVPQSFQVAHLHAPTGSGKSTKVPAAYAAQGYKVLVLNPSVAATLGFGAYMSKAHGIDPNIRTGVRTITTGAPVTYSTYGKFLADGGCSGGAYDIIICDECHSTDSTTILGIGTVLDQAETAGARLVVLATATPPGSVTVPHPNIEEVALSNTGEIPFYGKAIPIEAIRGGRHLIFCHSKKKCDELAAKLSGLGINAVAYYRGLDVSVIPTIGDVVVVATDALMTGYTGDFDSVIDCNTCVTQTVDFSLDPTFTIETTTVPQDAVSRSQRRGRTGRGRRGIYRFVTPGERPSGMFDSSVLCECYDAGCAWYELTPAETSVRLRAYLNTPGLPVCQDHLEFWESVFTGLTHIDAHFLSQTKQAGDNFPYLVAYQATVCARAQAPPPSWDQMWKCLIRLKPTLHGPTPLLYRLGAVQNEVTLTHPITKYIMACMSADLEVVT

Structure (SMILES) | IC50 [1] [µM] | further results
CC(C)c1ccc(Cn2cc(C(NC(=O)OC(C)(C)C)C(=O)O)c3ccccc32)cc1 (stereo not shown) [Example 419] | 10 to 50 | 
CC(C)Oc1ccc2scc(Cn3cc(CC(=O)O)c4cc(Br)ccc43)c2c1 [Example 140] | < 10 | 
COc1ccc(N(C)c2ccc(Cn3cc(CC(=O)O)c4ccccc43)cc2)c(OC)c1 [Example 577] |  | IC50 [2]: 10 to 50 µM
CN(c1ccc(Cl)cc1)c1ccc(Cn2cc(CC(=O)O)c3ccccc32)cc1 [Example 561] |  | IC50 [2]: < 10 µM
Cc1cc(-c2ccc(Cc3[nH]c4ccccc4c3CC(=O)O)cc2)ccc1Cl [Example 281] | < 10 | 
CN(Cc1ccccc1)c1ccc(-n2cc(CC(=O)O)c3ccccc32)cc1 [Example 162] | < 10 | 
COc1ccc(OC)c(Oc2cccc(Cn3cc(CC(=O)O)c4ccccc43)c2)c1 [Example 490] | 10 to 50 | 
CC(C)c1ccc(Cn2c(C(=O)NCc3nc4ccccc4[nH]3)c(CC(=O)O)c3cc(Br)ccc32)cc1 [Example 448] | < 10 | 
CCC(C)N(Cc1ccccc1)c1ccc(-n2cc(CC(=O)O)c3ccccc32)cc1 (stereo not shown) [Example 171] | < 10 | 
O=C(O)Cc1c(C(=O)c2cccc(-c3ccc(Cl)cc3Cl)c2)oc2ccccc12 [Example 242] | < 10 | 
O=C(O)Cc1cn(Cc2cccc(Oc3cc(C(F)(F)F)cc(C(F)(F)F)c3)c2)c2ccccc12 [Example 492] | < 10 | 
O=C(O)Cc1c(Cc2csc3ccc(Cl)cc23)[nH]c2cc(OCc3ccccc3)ccc12 [Example 347] | < 10 | 
O=C(O)Cc1cn(Cc2cccc(-c3cn[nH]c3)c2)c2ccc(OCc3ccccc3)cc12 [Example 131] | < 10 | 
C#Cc1ccc2c(CC(=O)O)cn(Cc3csc4ccc(Cl)cc34)c2c1 [Example 364] | < 10 | 
CC(C)c1ccc(Cn2c(C(=O)NCc3ccc([N+](=O)[O-])cc3)c(CC(=O)O)c3ccccc32)cc1 [Example 447] | < 10 | 
CN(Cc1ccccc1)c1ccc(-n2cc(C(O)(C(=O)O)C(F)(F)F)c3ccccc32)cc1 (stereo not shown) [Example 425] | < 10 | 
NC(=O)c1sccc1-c1ccc2c(CC(=O)O)cn(Cc3csc4ccc(Cl)cc34)c2c1 [Example 661] |  | IC50 [3]: 10 to 50 µM
O=C(O)Cc1c(C(=O)c2ccc(-c3ccc(C(=O)O)cc3)cc2)[nH]c2ccccc12 [Example 266] | 10 to 50 | 
Cc1ccc(-c2ccc3c(CC(=O)O)cn(Cc4csc5ccc(Cl)cc45)c3c2)cc1 [Example 751] |  | IC50 [4]: > 50 µM
Cc1sc2ccc(Cl)cc2c1Cn1cc(CC(=O)O)c2ccc(-c3ccccc3)cc21 [Example 770] |  | IC50 [4]: < 10 µM
O=C(O)Cc1cn(-c2ccc(NC(=O)Cc3ccsc3)cc2)c2ccccc12 [Example 164] | 10 to 50 | 
CCCNC(=O)Cc1cn(Cc2cccc(OCc3ccccc3)c2)c2ccc(Br)cc12 [Example 183] | 10 to 50 | 
CC(C)c1ccc(Cn2c(C(=O)NCc3ccccc3)c(CC(=O)O)c3cc(Br)ccc32)cc1 [Example 440] | 10 to 50 | 
O=C(O)Cc1cn(Cc2ccc(Oc3c(C(F)(F)F)cccc3C(F)(F)F)cc2)c2ccccc12 [Example 592] |  | IC50 [5]: 10 to 50 µM
Cc1cc([N+](=O)[O-])ccc1-n1cc(CC(=O)O)c2ccc(OCc3ccccc3)cc21 [Example 343] | 10 to 50 | 

Structure (SMILES) | IC50 [1] [µM] | further results
O=C(Cc1cn(Cc2csc3ccc(Cl)cc23)c2ccccc12)NS(=O)(=O)c1ccccc1 [Example 199] | 10 to 50 | 
NC(=O)Nc1ccccc1-c1ccc2c(CC(=O)O)cn(Cc3csc4ccc(Cl)cc34)c2c1 [Example 769] |  | IC50 [4]: > 50 µM
Cc1cc(NCc2ccccc2)ccc1-n1cc(CC(=O)O)c2ccccc21 [Example 173] | 10 to 50 | 
O=C(Cn1cc(Cc2nnn[nH]2)c2ccccc21)c1ccccc1 [Example 214] | 10 to 50 | 
O=C(O)Cc1cn(Cc2csc3ccc(Cl)cc23)c2cc(-c3cccc(CO)c3)ccc12 [Example 760] |  | IC50 [4]: 10 to 50 µM
COC(=O)C(c1ccccc1)c1cn(-c2ccc([N+](=O)[O-])cc2C)c2ccc(Br)cc12 (stereo not shown) [Example 387] | 10 to 50 | IC50 (2nd test, read-out: IC50 Activity (on 2nd test)): > 50 µM
CCNc1nc(NCC)nc(-c2ccc3c(CC(=O)O)cn(Cc4csc5ccc(Cl)cc45)c3c2)n1 [Example 632] |  | IC50 [6]: < 10 µM
CC(C)N(Cc1ccccc1)c1ccc(-n2cc(CC(=O)O)c3ccccc32)cc1 [Example 167] | < 10 | 
CN(c1cccc(Cl)c1)c1cccc(Cn2cc(CC(=O)O)c3ccccc32)c1 [Example 524] | < 10 | 
O=C(O)Cc1cn(Cc2ccc(Oc3cc(F)cc(F)c3)cc2)c2ccccc12 [Example 506] | < 10 | 
O=C(O)Cc1cn(Cc2cccc(I)c2)c2ccc(OCc3ccccc3)cc12 [Example 123] | < 10 | 
CC(C)c1ccc(Cn2c(C(=O)N3CCNC(=O)C3)c(CC(=O)O)c3cc(Br)ccc32)cc1 [Example 429] | > 50 | 
O=C(O)Cc1cn(Cc2cccc(Oc3c(Cl)cccc3Cl)c2)c2ccccc12 [Example 600] |  | IC50 [5]: 10 to 50 µM
COc1ccc(Oc2cccc(Cn3cc(CC(=O)O)c4ccccc43)c2)c(OC)c1 [Example 489] | 10 to 50 | 
Nc1cc(N)cc(-c2ccc3c(CC(=O)O)cn(Cc4cccc(-c5cccc(Cl)c5)c4)c3c2)c1 [Example 709] |  | IC50 (Table 35, compounds made using Scheme 53, read-out: IC50 Activity): 10 to 50 µM
Cc1ccc(-c2ccc(Cc3[nH]c4ccccc4c3CC(=O)O)cc2)cc1Cl [Example 291] | < 10 | 
O=C(O)Cc1cn(Cc2cccc(Oc3ccccc3Cl)c2)c2ccccc12 [Example 475] | < 10 | 
CC(=O)N(C)c1ccc(-n2cc(CC(=O)O)c3ccccc32)c(C)c1 [Example 160] | 10 to 50 | 
COc1ccc(Oc2cccc(Cn3cc(CC(=O)O)c4ccccc43)c2)cc1 [Example 480] | < 10 | 
CN(c1cccc(Cn2cc(CC(=O)O)c3ccccc32)c1)c1ccccc1F [Example 520] | < 10 | 
O=C(O)Cc1c(C(=O)c2ccc(-c3cccc(CO)c3)cc2)[nH]c2ccccc12 [Example 264] | 10 to 50 | 
N#Cc1ccccc1-c1ccc2c(CC(=O)O)cn(Cc3csc4ccc(Cl)cc34)c2c1 [Example 755] |  | IC50 [4]: > 50 µM
Cc1cc(NC(=O)CSc2ccccc2)ccc1-n1cc(CC(=O)O)c2ccccc21 [Example 159] | 10 to 50 | 
Cc1cc([N+](=O)[O-])ccc1-n1cc(CP(=O)(O)O)c2cc(Br)ccc21 [Example 313] | 10 to 50 | 
O=C(O)Cc1c(Cc2ccc(-c3ccccc3)cc2)[nH]c2ccccc12 [Example 295] | < 10 | 

Structure (SMILES) | IC50 [1] [µM] | further results
CC(=O)Nc1ccccc1-c1ccc2c(CC(=O)O)cn(Cc3csc4ccc(Cl)cc34)c2c1 [Example 768] |  | IC50 [4]: 10 to 50 µM
CN(c1cccc(Cn2cc(CC(=O)O)c3ccccc32)c1)c1cc(C(F)(F)F)ccc1C(F)(F)F [Example 546] | < 10 | 
CCc1cc2cc(-n3cc(CC(=O)O)c4ccccc43)ccc2s1 [Example 149] | < 10 | 
O=C(O)Cc1cn(Cc2cccc(Oc3ccccc3F)c2)c2ccccc12 [Example 472] | < 10 | 
O=C(O)Cc1c(Cc2ccc(-c3ccccc3Br)cc2)[nH]c2ccccc12 [Example 287] | < 10 | 
Clc1ccc2scc(Cn3cc(Cc4nnn[nH]4)c4ccccc43)c2c1 [Example 202] | < 10 | 
Clc1ccc2scc(Cn3c(-c4ccccc4)c(Cc4nnn[nH]4)c4ccccc43)c2c1 [Example 204] | < 10 | 
CC(C)c1ccc(Cn2cc(C(NC(=O)c3c[nH]cn3)C(=O)O)c3ccccc32)cc1 (stereo not shown) [Example 422] | 10 to 50 | 
Nc1cc(N)cc(-c2ccc3c(CC(=O)O)cn(Cc4csc5ccc(Cl)cc45)c3c2)c1 [Example 373] | < 10 | 
CC(=O)Nc1cccc(-c2ccc3c(CC(=O)O)cn(Cc4csc5ccc(Cl)cc45)c3c2)c1 [Example 766] |  | IC50 [4]: 10 to 50 µM
O=C(O)Cc1c(Cc2ccc(-c3ccccc3)cc2)oc2ccccc12 [Example 305] | 10 to 50 | 
Cc1cc([N+](=O)[O-])ccc1-n1cc(C(=O)C(=O)O)c2cc(Br)ccc21 [Example 381] | 10 to 50 | 
CC(C)(C)OC(=O)Nc1nnc(-c2ccc3c(CC(=O)O)cn(Cc4csc5ccc(Cl)cc45)c3c2)s1 [Example 658] |  | IC50 [3]: < 10 µM
COC(=O)C=Cc1cn(-c2ccc([N+](=O)[O-])cc2C)c2cnc(OCc3ccccc3)cc12 [Example 329] | > 50 | 
CC(C)c1ccc(Cn2c(C(=O)NCc3ccc(-c4ccccc4)cc3)c(CC(=O)O)c3cc(Br)ccc32)cc1 [Example 441] | 10 to 50 | 
Nn1cc(-c2ccc3c(CC(=O)O)cn(Cc4csc5ccc(Cl)cc45)c3c2)c(=O)n(N)c1=O [Example 651] |  | IC50 [6]: > 50 µM
CN(c1cccc(Cn2cc(CC(=O)O)c3ccccc32)c1)c1ccc(Cl)c(Cl)c1 [Example 541] | < 10 | 
Nc1cc(-c2ccc3c(CC(=O)NO)cn(Cc4csc5ccc(Cl)cc45)c3c2)cc([N+](=O)[O-])c1 [Example 691] |  | IC50 (Table 34, compounds made using Schemes 51-52, read-out: IC50 Activity): 10 to 50 µM
O=C(O)Cc1cn(-c2ccc(NCc3ccccc3)cc2)c2ccccc12 [Example 161] | < 10 | 
O=C(O)Cc1cn(Cc2cccc(Oc3ccccc3)c2)c2ccc(Br)cc12 [Example 105] | < 10 | 
CC(C)(C)OC(=O)NCc1cccc(-c2ccc(C(=O)c3[nH]c4ccccc4c3CC(=O)O)cc2)c1 [Example 268] | < 10 | 
CSc1cccc(-c2cccc(Cc3[nH]c4ccccc4c3CC(=O)O)c2)c1 [Example 297] | < 10 | 
O=C(O)Cc1cn(Cc2csc3c(Cl)cccc23)c2cc(Br)ccc12 [Example 782] |  | IC50 (Table 36, compounds made using Scheme 54, read-out: IC50 Activity): > 50 µM
CC(C)c1cccc(-c2cccc(Cc3oc4ccccc4c3CC(=O)O)c2)c1 [Example 311] | < 10 | 
O=C(O)Cc1c(Cc2csc3ccc(Cl)cc23)[nH]c2ccc(Br)cc12 [Example 374] | 10 to 50 | 
